Reference: US20230117034A1, “PYRAZOLOTRIAZINES” (Bayer Aktiengesellschaft, priority 2019, published 2023)

Legend:
[1] = target: T1, CYCLIN K (nuclear staining in CAL-120 cells) (Homo sapiens, UniProt O75909); experiment: CYCLIN K nuclear protein level: immunofluorescence high content analysis (CAL-120); assay type: cell-based; conditions: 24 h, 50% reduction of nuclear CCNK staining intensity, median, read-out: CYCLIN K degradation IF, DC50-[mol/l] (median)
T1 construct: endogenous in cells; host or cells: CAL-120 human breast cancer cells (DSMZ ACC 459)
T1 sequence (O75909 whole entry): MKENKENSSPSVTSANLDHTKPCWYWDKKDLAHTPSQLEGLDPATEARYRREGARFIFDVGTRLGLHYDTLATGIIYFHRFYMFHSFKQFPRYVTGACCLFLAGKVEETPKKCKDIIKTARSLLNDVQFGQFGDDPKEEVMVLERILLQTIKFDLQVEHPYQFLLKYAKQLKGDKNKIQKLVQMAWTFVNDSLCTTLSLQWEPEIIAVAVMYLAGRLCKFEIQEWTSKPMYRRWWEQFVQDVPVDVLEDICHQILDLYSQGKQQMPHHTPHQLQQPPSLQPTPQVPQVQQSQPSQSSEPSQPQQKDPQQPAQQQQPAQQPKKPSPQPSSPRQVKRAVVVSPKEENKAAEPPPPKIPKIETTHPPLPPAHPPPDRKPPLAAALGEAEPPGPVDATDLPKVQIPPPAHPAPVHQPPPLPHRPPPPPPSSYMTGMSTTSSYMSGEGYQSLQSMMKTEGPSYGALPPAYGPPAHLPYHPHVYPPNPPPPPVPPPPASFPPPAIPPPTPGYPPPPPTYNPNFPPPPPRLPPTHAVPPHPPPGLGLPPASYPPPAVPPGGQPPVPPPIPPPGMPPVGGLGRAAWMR
T1 sequence (Q9NYV4 whole entry partner): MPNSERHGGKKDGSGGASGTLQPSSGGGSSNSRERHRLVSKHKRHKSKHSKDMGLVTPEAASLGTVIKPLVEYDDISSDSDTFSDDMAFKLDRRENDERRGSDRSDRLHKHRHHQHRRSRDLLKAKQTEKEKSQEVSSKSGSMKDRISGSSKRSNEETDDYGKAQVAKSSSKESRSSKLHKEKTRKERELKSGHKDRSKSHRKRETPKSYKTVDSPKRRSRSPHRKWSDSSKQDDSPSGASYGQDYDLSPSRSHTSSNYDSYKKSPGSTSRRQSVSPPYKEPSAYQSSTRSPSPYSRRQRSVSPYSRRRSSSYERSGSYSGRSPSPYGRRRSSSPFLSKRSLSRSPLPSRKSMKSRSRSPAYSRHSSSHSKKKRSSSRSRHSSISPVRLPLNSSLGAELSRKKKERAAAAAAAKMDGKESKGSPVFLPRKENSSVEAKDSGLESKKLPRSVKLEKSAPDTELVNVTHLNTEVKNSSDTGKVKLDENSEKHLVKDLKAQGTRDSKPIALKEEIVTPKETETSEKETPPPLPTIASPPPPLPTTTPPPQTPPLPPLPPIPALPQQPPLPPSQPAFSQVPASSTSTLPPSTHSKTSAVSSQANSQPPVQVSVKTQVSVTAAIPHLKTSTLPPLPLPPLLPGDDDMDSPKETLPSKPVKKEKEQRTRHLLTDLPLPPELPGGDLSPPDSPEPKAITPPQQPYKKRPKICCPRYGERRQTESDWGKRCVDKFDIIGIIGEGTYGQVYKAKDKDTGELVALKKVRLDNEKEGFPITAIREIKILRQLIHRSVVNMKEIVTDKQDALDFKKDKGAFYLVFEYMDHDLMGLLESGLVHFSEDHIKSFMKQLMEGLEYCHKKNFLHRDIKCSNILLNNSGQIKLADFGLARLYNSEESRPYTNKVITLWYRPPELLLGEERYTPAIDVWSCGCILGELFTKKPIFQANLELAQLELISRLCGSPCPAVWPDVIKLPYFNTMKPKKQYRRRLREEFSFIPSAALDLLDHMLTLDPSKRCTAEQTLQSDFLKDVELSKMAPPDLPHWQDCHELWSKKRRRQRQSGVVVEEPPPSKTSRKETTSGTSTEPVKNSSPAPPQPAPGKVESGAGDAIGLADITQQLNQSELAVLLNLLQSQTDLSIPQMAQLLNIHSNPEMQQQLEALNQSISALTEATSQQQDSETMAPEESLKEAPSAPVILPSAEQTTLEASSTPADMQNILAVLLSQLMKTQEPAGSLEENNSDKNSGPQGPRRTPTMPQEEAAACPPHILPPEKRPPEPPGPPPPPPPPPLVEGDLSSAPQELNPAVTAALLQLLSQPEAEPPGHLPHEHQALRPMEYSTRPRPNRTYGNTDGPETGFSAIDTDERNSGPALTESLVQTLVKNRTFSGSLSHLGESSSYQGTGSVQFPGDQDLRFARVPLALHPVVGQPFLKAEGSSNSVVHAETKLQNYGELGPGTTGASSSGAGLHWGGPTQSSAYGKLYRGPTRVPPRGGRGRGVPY
Outline: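 Readout is automated confocal image analysis of nuclear cyclin K immunofluorescence (Hoechst nuclei) after PFA fixation. Cells were CAL-120, exposed to compound dose-response 24 h at 37 °C; values are DC50 for halving nuclear CCNK signal relative to DMSO and control wells.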

CDK2/CycE = target: T2, CDK2/CycE (Homo sapiens, UniProt P24941); experiment: CDK2/CycE kinase assay (TR-FRET, 2 mM ATP); assay type: biochemical; conditions: 2 mM ATP (high ATP); median; read-out: CDK2/CyclinE, 2 mM ATP (high ATP), IC50 (median)
T2 construct: purchased ProQinase GmbH (Freiburg, Germany); host or cells: insect cells (Sf9)
Outline: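 Biotin-peptide phosphorylation (0.75 µM substrate, 2 mM ATP final, 25 min, 22 °C) by Sf9-expressed GST-CDK2/GST-CycE, after a 15-min compound pre-binding step. Inhibition scaled between enzyme-free (100%) and uninhibited (0%) wells.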

[2] = system: BRCA1 mRNA expression in CAL-120 cells; experiment: qRT-PCR assay: BRCA1 mRNA expression in CAL-120; assay type: cell-based; conditions: Homo sapiens; Inhibition of BRCA1 mRNA expression in CAL-120 cells; median; read-out: RTqPCR-CAL-120, IC50, BRCA1 (median)
Outline: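 Seed 200,000 cells/well; 24 h later add compound, continuous exposure 24 h; extract RNA, 600 ng to cDNA; RT-qPCR, normalised to GAPDH.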

| DC50 [1] [nM] | IC50 (CDK2/CycE) [nM] | IC50 [2] [nM] | Compound |
| --- | --- | --- | --- |
| 0.888 | 6020 | 30.6 | Cc1ccnc2[nH]c(CNc3nc(N4CCOCC4)nc4c(C(C)C)cnn34)nc12 [Example 28, N-[(7-methyl-3H-imidazo[4,5-b]pyridin-2-yl)methyl]-2-(morpholin-4-yl)-8-(propan-2-yl)pyrazolo[1,5-a][1,3,5]triazin-4-amine] |
| 3.36 | 3080 | 84.1 | Fc1ccc(-c2nnc(CNc3nc(N4CCOCC4)nc4c(Br)cnn34)[nH]2)cc1 [Example 29, 8-bromo-N-{[5-(4-fluorophenyl)-4H-1,2,4-triazol-3-yl]methyl}-2-(morpholin-4-yl)pyrazolo[1,5-a][1,3,5]triazin-4-amine] |
